As usually defined, the IC50 is the concentration that gives 50% inhibition.

SMILES strings stand for the structures. Square brackets hold non-standard residues; d marks the D form. Peptide text beside a SMILES is read from it. * marks the point of attachment. NH((S)CH(Me)CH2NHC2H4OH) = C[C@@H](CNCCO)N*; Gly(octyl) = CCCCCCCC[C@H](N)C(=O)O; Cha = N[C@@H](CC1CCCCC1)C(=O)O; Lauroyl = CCCCCCCCCCCC(=O)*; Octanoyl = CCCCCCCC(=O)*; Hexanoyl = CCCCCC(=O)*; Aib = CC(C)(N)C(=O)O; βAla = NCCC(=O)O

Among the data in ChEMBL document CHEMBL4622945, “Synthesis and antiproliferative activity of C- and N-terminal analogues of culicinin D” (Bioorg Med Chem Lett, 2020) are IC50 values, retold here.

Common to all, as to assay type: functional, cell-based
In one assay the test system is MDA-MB-468. The experiment in a line: Antiproliferative activity against human MDA-MB-468 cells assessed as reduction in cell growth by SRB assay. In general terms: In SRB staining, fixed cells bind dye roughly in proportion to their protein.
In the next assay the test system is SK-BR-3. The experiment in a line: Antiproliferative activity against human SKBR3 cells assessed as reduction in cell growth by SRB assay.
The test system of the next assay is T47D. The assay can be described thus: Antiproliferative activity against human T47D cells assessed as reduction in cell growth by SRB assay.
For the next assay, the system named is NCI-H460. The assay can be described thus: Antiproliferative activity against human NCI-H460 cells assessed as reduction in cell growth by SRB assay.

With `CCCCCCCC[C@H](NC(=O)C(C)(C)NC(=O)C(C)(C)NC(=O)[C@H](CC1CCCCC1)NC(=O)[C@@H]1CCCN1C(=O)CCCCC)C(=O)N[C@@H](CC(C)C)C(=O)NC(C)(C)C(=O)N[C@@H](CC(C)C)C(=O)NCCC(=O)N[C@@H](C)CNCCO` (Hexanoyl-P[Cha][Aib][Aib][Gly(octyl)]L[Aib]L[βAla]-{NH((S)CH(Me)CH2NHC2H4OH)}), the IC50 in the assay on MDA-MB-468 was found to be 5 nM; in the assay on SK-BR-3 it was 18 nM; in the assay on T47D it was 7 nM; in the assay on NCI-H460, 4 nM.
Turning to `CCCCCCCCCCCC(=O)N1CCC[C@H]1C(=O)N[C@@H](CC1CCCCC1)C(=O)NC(C)(C)C(=O)NC(C)(C)C(=O)N[C@@H](CCCCCCCC)C(=O)N[C@@H](CC(C)C)C(=O)NC(C)(C)C(=O)N[C@@H](CC(C)C)C(=O)NCCC(=O)N[C@@H](C)CNCCO` (Lauroyl-P[Cha][Aib][Aib][Gly(octyl)]L[Aib]L[βAla]-{NH((S)CH(Me)CH2NHC2H4OH)}), the IC50 in the assay with MDA-MB-468 amounted to 23 nM; with SK-BR-3 it was 73 nM; with T47D it was 63 nM; in the assay on NCI-H460, 37 nM.
With `CCCCCCCC[C@H](NC(=O)C(C)(C)NC(=O)C(C)(C)NC(=O)[C@H](CC1CCCCC1)NC(=O)[C@@H]1CCCN1C(=O)CCCCCCC)C(=O)N[C@@H](CC(C)C)C(=O)NC(C)(C)C(=O)N[C@@H](CC(C)C)C(=O)NCCC(=O)N[C@@H](C)CNCCO` (Octanoyl-P[Cha][Aib][Aib][Gly(octyl)]L[Aib]L[βAla]-{NH((S)CH(Me)CH2NHC2H4OH)}), the IC50 in the assay on MDA-MB-468 came to 4 nM; with SK-BR-3, 15 nM; in the assay on T47D, 7 nM; in the assay with NCI-H460, 4 nM.
